Test results from US20220048944A1, “FUNC[…] AS ANTIVIRAL AGENTS” (Enanta Pharmaceuticals, Inc., priority 2020, published 2022).

Molecular target: SARS-CoV-2 3CL-protease (Severe acute respiratory syndrome coronavirus 2, UniProt P0DTD1)
Experiment: SARS-CoV-2 3C-like (3CL) protease fluorescence assay (FRET)
Format: biochemical
Conditions: recombinant SARS-CoV-2 3CL-protease 10 nM, TAMRA-[…]-Dabcyl-OH substrate, 30 min preincubation at RT, run in duplicate
Procedure: SARS-CoV-2 3C-like (3CL) protease fluorescence assay (FRET): Recombinant SARS-CoV-2 3CL-protease was expressed and purified. […] Black, low volume, round-bottom, 384 well microplates were used. In a typical assay, 0.85 μL of test compound was dissolved in DMSO then incubated with SARS-CoV-2 3CL-protease (10 nM) in 10 μL assay buffer (50 mM HEPES [pH 7.5], 1 mM DTT, 0.01% BSA, 0.01% Triton-X 100) for 30 min at RT. Next, 10 μL of 3CL-protease substrate (40 μM) in assay buffer was added and the assays were monitored continuously for 1 h in an Envision multimode plate reader operating in fluorescence kinetics mode with excitation at 540 nm and emission at 580 nm at RT. No compound (DMSO only) and no enzyme controls were routinely included in each plate. All experiments were run in duplicate.
Data were fitted to normalized activity (variable slope) versus concentration fit in GraphPad Prism 7 to determine IC50.

Structure (SMILES) | IC50 [nM]
COc1cccc2[nH]c(C(=O)N[C@@H](CC3CCCC3)C(=O)N[C@H](C#N)C[C@@H]3CCNC3=O)cc12 [Example 10, N—((S)-1-(((S)-1-cyano-2-((S)-2-oxopyrrolidin-3-yl)ethyl)amino)-3-cyclopentyl-1-oxopropan-2-yl)-4-methoxy-1H-indole-2-carboxamide] | 100 to 1000
COc1cccc2[nH]c(C(=O)N[C@@H](Cc3ccccc3)C(=O)N[C@H](C#N)C[C@@H]3CCNC3=O)cc12 [Example 3, N—((S)-1-(((S)-1-cyano-2-((S)-2-oxopyrrolidin-3-yl)ethyl)amino)-1-oxo-3-phenylpropan-2-yl)-4-methoxy-1H-indole-2-carboxamide] | 100 to 1000
COc1cccc2[nH]c(C(=O)N[C@@H](CC(F)(F)F)C(=O)N[C@H](C#N)C[C@@H]3CCNC3=O)cc12 [Example 25, N—((S)-1-(((S)-1-cyano-2-((S)-2-oxopyrrolidin-3-yl)ethyl)amino)-4,4,4-trifluoro-1-oxobutan-2-yl)-4-methoxy-1H-indole-2-carboxamide] | 100 to 1000
COc1cccc2[nH]c(C(=O)N[C@H](C(=O)N[C@H](C#N)C[C@@H]3CCNC3=O)C3CCCCC3)cc12 [Example 6, N—((S)-2-(((S)-1-cyano-2-((S)-2-oxopyrrolidin-3-yl)ethyl)amino)-1-cyclohexyl-2-oxoethyl)-4-methoxy-1H-indole-2-carboxamide] | > 1000
N#C[C@H](C[C@@H]1CCCNC1=O)NC(=O)[C@H](CC1CCCCC1)NC(=O)c1cc2ccccc2o1 [Example 15, N—((S)-1-(((S)-1-cyano-2-((S)-2-oxopiperidin-3-yl)ethyl)amino)-3-cyclohexyl-1-oxopropan-2-yl)benzofuran-2-carboxamide] | 100 to 1000
COc1cccc2[nH]c(C(=O)N[C@H](C(=O)N[C@H](C#N)C[C@@H]3CCNC3=O)c3ccccc3)cc12 [Example 5, N—((S)-2-(((S)-1-cyano-2-((S)-2-oxopyrrolidin-3-yl)ethyl)amino)-2-oxo-1-phenylethyl)-4-methoxy-1H-indole-2-carboxamide] | > 1000
COc1cccc2[nH]c(C(=O)N[C@@H](CC3CCCCC3)C(=O)N[C@H](C#N)C[C@@H]3CCCNC3=O)cc12 [Example 14, N—((S)-1-(((S)-1-cyano-2-((S)-2-oxopiperidin-3-yl)ethyl)amino)-3-cyclohexyl-1-oxopropan-2-yl)-4-methoxy-1H-indole-2-carboxamide] | < 100
COc1cccc2[nH]c(C(=O)N[C@@H](CCc3ccccc3)C(=O)N[C@H](C#N)C[C@@H]3CCNC3=O)cc12 [Example 8, N—((S)-1-(((S)-1-cyano-2-((S)-2-oxopyrrolidin-3-yl)ethyl)amino)-1-oxo-4-phenylbutan-2-yl)-4-methoxy-1H-indole-2-carboxamide] | 100 to 1000
COc1cccc2[nH]c(C(=O)N[C@@H](CSC)C(=O)N[C@H](C#N)C[C@@H]3CCNC3=O)cc12 [Example 24, N—((R)-1-(((S)-1-cyano-2-((S)-2-oxopyrrolidin-3-yl)ethyl)amino)-3-(methylthio)-1-oxopropan-2-yl)-4-methoxy-1H-indole-2-carboxamide] | 100 to 1000
COc1cccc2[nH]c(C(=O)N[C@@H](CCCc3ccccc3)C(=O)N[C@H](C#N)C[C@@H]3CCNC3=O)cc12 [Example 11, N—((S)-1-(((S)-1-cyano-2-((S)-2-oxopyrrolidin-3-yl)ethyl)amino)-1-oxo-5-phenylpentan-2-yl)-4-methoxy-1H-indole-2-carboxamide] | > 1000
COc1cccc2[nH]c(C(=O)N[C@H](C(=O)N[C@H](C#N)C[C@@H]3CCNC3=O)C(C)C)cc12 [Example 7, N—((S)-1-(((S)-1-cyano-2-((S)-2-oxopyrrolidin-3-yl)ethyl)amino)-3-methyl-1-oxobutan-2-yl)-4-methoxy-1H-indole-2-carboxamide] | > 1000
CC(C)C[C@H](NC(=O)c1cc2ccccc2o1)C(=O)N[C@H](C#N)C[C@@H]1CCNC1=O [Example 13, N—((S)-1-(((S)-1-cyano-2-((S)-2-oxopyrrolidin-3-yl)ethyl)amino)-4-methyl-1-oxopentan-2-yl)benzofuran-2-carboxamide] | > 1000
N#C[C@H](C[C@@H]1CCNC1=O)NC(=O)[C@H](CC1CCCCC1)NC(=O)c1cc2ccccc2o1 [Example 22, N—((S)-1-(((S)-1-cyano-2-((S)-2-oxopyrrolidin-3-yl)ethyl)amino)-3-cyclohexyl-1-oxopropan-2-yl)benzofuran-2-carboxamide] | > 1000
COc1cccc2[nH]c(C(=O)N[C@@H](CCSC)C(=O)N[C@H](C#N)C[C@@H]3CCNC3=O)cc12 [Example 12, N—((S)-1-(((S)-1-cyano-2-((S)-2-oxopyrrolidin-3-yl)ethyl)amino)-4-(methylthio)-1-oxobutan-2-yl)-4-methoxy-1H-indole-2-carboxamide] | 100 to 1000
CC(C)C[C@H](NC(=O)c1cc2ccccc2[nH]1)C(=O)N[C@H](C#N)C[C@@H]1CCNC1=O [Example 2, N—((S)-1-(((S)-1-cyano-2-((S)-2-oxopyrrolidin-3-yl)ethyl)amino)-4-methyl-1-oxopentan-2-yl)-1H-indole-2-carboxamide] | 100 to 1000
COc1cccc2[nH]c(C(=O)N[C@@H](CC(C)C)C(=O)N[C@H](C#N)C[C@@H]3CCCNC3=O)cc12 [Example 16, N—((S)-1-(((S)-1-cyano-2-((S)-2-oxopiperidin-3-yl)ethyl)amino)-4-methyl-1-oxopentan-2-yl)-4-methoxy-1H-indole-2-carboxamide] | < 100
COc1cccc2[nH]c(C(=O)N[C@@H](Cc3ccccc3)C(=O)N[C@H](C#N)C[C@@H]3CCCNC3=O)cc12 [Example 18, N—((S)-1-(((S)-1-cyano-2-((S)-2-oxopiperidin-3-yl)ethyl)amino)-1-oxo-3-phenylpropan-2-yl)-4-methoxy-1_H-indole-2-carboxamide] | 100 to 1000
COc1cccc2[nH]c(C(=O)N[C@H](C(=O)N[C@H](C#N)C[C@@H]3CCNC3=O)C(C)(C)C)cc12 [Example 19, N—((S)-1-(((S)-1-cyano-2-((S)-2-oxopyrrolidin-3-yl)ethyl)amino)-3,3-dimethyl-1-oxobutan-2-yl)-4-methoxy-1H-indole-2-carboxamide] | > 1000
